Columns and labels:
Type in all cases: in vivo
[1] = system: velvetleaf (Abutilon theophrasti, ABUTH); test: Greenhouse herbicide screen, post-emerge application, phytotoxicity rating; conditions: POST emergent, 14 days after application, scale 0-100
Excerpt: (§1) A standard greenhouse herbicide activity screening system was used to evaluate the herbicidal efficacy and crop safety of these test compounds. Seven broadleaf weed species including redroot pigweed (Amaranthus retrofiexus, AMARE), velvetleaf (Abutilon theophrasti, ABUTH), sicklepod (Cassia obtusifolia, CASOB), ivyleaf morningglory (Ipomoea hederacea, IPOHE), lambsquarters (Chenopodium album, CHEAL), common ragweed (Ambrosia artemisiifolia L., AMBEL), and cocklebur (Xanthium strumarium, XANST) were used as test species. Four grass weed species including green foxtail (Setaria viridis, SETVI), barnyardgrass (Echinochloa crus-galli, ECHCG), johnsongrass (Sorghum halepense, SORHA), and large crabgrass (Digitaria sanguinalis, DIGSA) were also used. In addition, four crop species, field corn (Zea mays L., var. Dekalb 535, CORN), soybean (Glycine max L., var. Pella 86, SOY), upland rice (Oryza sp., var.Cocodrie, RICE) and wheat (Triticum aestivum L.) were included.
(§2) All plants were grown in 10 cm square plastic pots which were filled with a sandy loam soil mix. For pre-emerge tests, seeds were planted one day prior to application of the test compounds. For post-emerge tests, seeds were planted 8-21 days prior to the test to allow emergence and good foliage development prior to application of the test substances. At the time of the post-emerge application, plants of all species were usually at the 2-3 leaf stage of development.
(§3) All test compounds were dissolved in acetone and applied to the test units in a volume of 187 l/ha. Test materials were applied at rates ranging from 15 g ai/ha to 1000 g ai/ha using a track sprayer equipped with a TJ8001E even flow flat fan spray nozzle. Plants were arranged on a shelf so that the top of the canopy (post-emerge) or top of the soil surface (pre-emerge) was 40-45 cm below the nozzle. Pressurized air was used to force the test solution through the nozzle as it was mechanically advanced (via electrically driven chain drive) over the top of all test plants/pots. This application simulates a typical commercial field herbicide application.
(§4) Pre-emergence tests were top watered immediately after treatment to incorporate the test materials, then routinely top-watered for normal growth. Post-emerge test units were always bottom-watered.
(§5) At 14 days after application of the test materials, phytotoxicity ratings were recorded. A rating scale of 0-100 was used as previously described in Research Methods in Weed Science, 2nd edition, B. Truelove, Ed., Southern Weed Science Society, Auburn University, Auburn, Ala., 1977. Briefly, “0” corresponds to no damage and “100” corresponds to complete death of all plants in the test unit. This scale was used both to determine efficacy against weed species and damage to crop species. Herbicide activity data for various compounds of this invention, which are shown by compound No. in Tables 1-12, are shown in Tables 13 and 14.

[2] = system: common ragweed (Ambrosia artemisiifolia L., AMBEL); test: as above; conditions: POST emergent, 14 days after application, scale 0-100
Excerpt: as §1, §2, §3, §4, §5

[3] = system: redroot pigweed (Amaranthus retrofiexus, AMARE); test: as above; conditions: POST emergent, 14 days after application
Excerpt: as §1, §2, §3, §4, §5

[4] = system: green foxtail (Setaria viridis, SETVI); test: as above; conditions: POST emergent, 14 days after application, scale 0-100
Excerpt: as §1, §2, §3, §4, §5

[5] = system: lambsquarters (Chenopodium album, CHEAL); test: as above; conditions: POST emergent, 14 days after application, scale 0-100
Excerpt: as §1, §2, §3, §4, §5

[6] = system: sicklepod (Cassia obtusifolia, CASOB); test: as above; conditions: POST emergent, 14 days after application, scale 0-100
Excerpt: as §1, §2, §3, §4, §5

[7] = system: barnyardgrass (Echinochloa crus-galli, ECHCG); test: as above; conditions: POST emergent, 14 days after application, scale 0-100
Excerpt: as §1, §2, §3, §4, §5

[8] = system: large crabgrass (Digitaria sanguinalis, DIGSA); test: as above; conditions: POST emergent, 14 days after application, scale 0-100
Excerpt: as §1, §2, §3, §4, §5

[9] = system: ivyleaf morningglory (Ipomoea hederacea, IPOHE); test: as above; conditions: POST emergent, 14 days after application, scale 0-100
Excerpt: as §1, §2, §3, §4, §5

[10] = system: cocklebur (Xanthium strumarium, XANST); test: as above; conditions: POST emergent, 14 days after application, scale 0-100
Excerpt: as §1, §2, §3, §4, §5

[11] = system: johnsongrass (Sorghum halepense, SORHA); test: as above; conditions: POST emergent, 14 days after application, scale 0-100
Excerpt: as §1, §2, §3, §4, §5

[12] = system: velvetleaf (Abutilon theophrasti, ABUTH); test: Greenhouse herbicide screen, pre-emerge application, phytotoxicity rating; conditions: PRE emergent, 14 days after application, rating scale 0-100
Excerpt: as §1, §2, §3, §4, §5

[13] = system: common ragweed (Ambrosia artemisiifolia L., AMBEL); test: as above; conditions: PRE emergent, 14 days after application, rating scale 0-100
Excerpt: as §1, §2, §3, §4, §5

[14] = system: redroot pigweed (Amaranthus retrofiexus, AMARE); test: as above; conditions: PRE emergent, 14 days after application, rating scale 0-100
Excerpt: as §1, §2, §3, §4, §5

[15] = system: green foxtail (Setaria viridis, SETVI); test: as above; conditions: PRE emergent, 14 days after application, rating scale 0-100
Excerpt: as §1, §2, §3, §4, §5

[16] = system: lambsquarters (Chenopodium album, CHEAL); test: as above; conditions: PRE emergent, 14 days after application, rating scale 0-100
Excerpt: as §1, §2, §3, §4, §5

[17] = system: sicklepod (Cassia obtusifolia, CASOB); test: as above; conditions: PRE emergent, 14 days after application, rating scale 0-100
Excerpt: as §1, §2, §3, §4, §5

[18] = system: barnyardgrass (Echinochloa crus-galli, ECHCG); test: as above; conditions: PRE emergent, 14 days after application, rating scale 0-100
Excerpt: as §1, §2, §3, §4, §5

[19] = system: large crabgrass (Digitaria sanguinalis, DIGSA); test: as above; conditions: PRE emergent, 14 days after application, rating scale 0-100
Excerpt: as §1, §2, §3, §4, §5

[20] = system: ivyleaf morningglory (Ipomoea hederacea, IPOHE); test: as above; conditions: PRE emergent, 14 days after application, rating scale 0-100
Excerpt: as §1, §2, §3, §4, §5

[21] = system: cocklebur (Xanthium strumarium, XANST); test: as above; conditions: PRE emergent, 14 days after application, rating scale 0-100
Excerpt: as §1, §2, §3, §4, §5

[22] = system: johnsongrass (Sorghum halepense, SORHA); test: as above; conditions: PRE emergent, 14 days after application, rating scale 0-100
Excerpt: as §1, §2, §3, §4, §5

In the case of `COC(=NN=C(C(C)(C)C)C(C)(C)C)c1cc(-n2c(=O)cc(C(F)(F)F)n(C)c2=O)c(F)cc1Cl` [Compound 5-6, 2-chloro-5-(3,6-dihydro-3-methyl-2,6-dioxo-4-(trifluoromethyl)-1(2H)-pyrimidinyl)-N-[1-(1,1-dimethylethyl)-2,2-dimethylpropylidene]-4-fluoro-benzenecarbohydrazonic Acid Methyl Ester], the “phytotoxicity rating ABUTH” value ([1]; 63 g ai/ha) is reported as 75, the “phytotoxicity rating ABUTH” value ([1]; 250 g ai/ha) is reported as 95 and the “phytotoxicity rating AMBEL” value ([2]; 63 g ai/ha) is reported as 35. The “phytotoxicity rating AMBEL” value ([2]; 250 g ai/ha) was 99, the “phytotoxicity rating AMARE” value ([3]; 63 g ai/ha, scale 0-100 (0 no damage, 100 complete death)) was 100 and the “phytotoxicity rating AMARE” value ([3]; 250 g ai/ha, scale 0-100) was 100. The “phytotoxicity rating SETVI” value ([4]; 63 g ai/ha) was 95, the “phytotoxicity rating SETVI” value ([4]; 250 g ai/ha) was 100 and the “phytotoxicity rating CHEAL” value ([5]; 63 g ai/ha) was 100. For the same compound, the “phytotoxicity rating CHEAL” value ([5]; 250 g ai/ha) was 100, the “phytotoxicity rating CASOB” value ([6]; 63 g ai/ha) was 40 and the “phytotoxicity rating CASOB” value ([6]; 250 g ai/ha) was 98. For the same compound, the “phytotoxicity rating ECHCO” value ([7]; 63 g ai/ha) was 40, the “phytotoxicity rating ECHCO” value ([7]; 250 g ai/ha) was 90 and the “phytotoxicity rating DIGSA” value ([8]; 63 g ai/ha) was 20. The “phytotoxicity rating DIGSA” value ([8]; 250 g ai/ha) was 99, the “phytotoxicity rating IPOHE” value ([9]; 63 g ai/ha) was 35 and the “phytotoxicity rating IPOHE” value ([9]; 250 g ai/ha) was 70. The “phytotoxicity rating XANST” value ([10]; 63 g ai/ha) was 0, the “phytotoxicity rating XANST” value ([10]; 250 g ai/ha) was 10 and the “phytotoxicity rating SORHA” value ([11]; 63 g ai/ha) was 25. The “phytotoxicity rating SORHA” value ([11]; 250 g ai/ha) was 100, the “phytotoxicity rating ABUTH” value ([12]; 63 g ai/ha) was 75 and the “phytotoxicity rating ABUTH” value ([12]; 250 g ai/ha) was 95. For the same compound, the “phytotoxicity rating AMBEL” value ([13]; 63 g ai/ha) was 35, the “phytotoxicity rating AMBEL” value ([13]; 250 g ai/ha) was 99 and the “phytotoxicity rating AMARE” value ([14]; 63 g ai/ha) was 100. For the same compound, the “phytotoxicity rating AMARE” value ([14]; 250 g ai/ha) was 100, the “phytotoxicity rating SETVI” value ([15]; 63 g ai/ha) was 95 and the “phytotoxicity rating SETVI” value ([15]; 250 g ai/ha) was 100. The “phytotoxicity rating CHEAL” value ([16]; 63 g ai/ha) was 100, the “phytotoxicity rating CHEAL” value ([16]; 250 g ai/ha) was 100 and the “phytotoxicity rating CASOB” value ([17]; 63 g ai/ha) was 40. The “phytotoxicity rating CASOB” value ([17]; 250 g ai/ha) was 98, the “phytotoxicity rating ECHCG” value ([18]; 63 g ai/ha) was 40 and the “phytotoxicity rating ECHCG” value ([18]; 250 g ai/ha) was 90. For the same compound, the “phytotoxicity rating DIGSA” value ([19]; 63 g ai/ha) was 20, the “phytotoxicity rating DIGSA” value ([19]; 250 g ai/ha) was 99 and the “phytotoxicity rating IPOHE” value ([20]; 63 g ai/ha) was 35. The “phytotoxicity rating IPOHE” value ([20]; 250 g ai/ha) was 70, the “phytotoxicity rating XANST” value ([21]; 63 g ai/ha) was 0 and the “phytotoxicity rating XANST” value ([21]; 250 g ai/ha) was 10. The “phytotoxicity rating SORHA” value ([22]; 63 g ai/ha) was 25 and the “phytotoxicity rating SORHA” value ([22]; 250 g ai/ha) was 100.
